The structures appear in SMILES notation.

The subject of this assay is phospho-ERK in melanoma derived WM-266-4 cells. In words: Mechanistic cellular assay for Raf kinase activity (phospho-ERK, Bio-Plex). In kind it is cell-based. Conditions: Homo sapiens, treated 1-2 hr at 37° C., serum free medium, read-out: pERK EC50. From the text: (2) Mechanistic Cellular Assay for Raf Kinase Activity
The following method was utilized for quantifying the amount of phospho-ERK in melanoma derived WM-266-4 cells (one allele each of wild type BRaf and mutant BRaf (V600D) as an indicator of Raf kinase activity in cells treated with various kinase inhibitors.
(1) Detached adhered WM-266-4 cells from flask using 0.25% Trypsin. Resuspended cells in growth media (90% RPMI 1640, 10% FBS) and determine cell density.
(2) Seeded cells @ 10,000 cells/well in 96-well (flat bottom) tissue culture plates (36,000 cells/cm^2). Added growth media to a final volume of 200 uL/well and incubated overnight at 37° C.
(1) Prepared compound dilutions (1000× in DMSO) as follows. Starting with a stock of 5 mM compound in DMSO, diluted serially 3-fold in DMSO for a total of eight concentrations (5 mM, 1.67 mM, 0.556 mM, 0.185 mM, 0.062 mM, 0.021 mM, 0.007 mM, 0.002 mM).
(2) Prepared compound-containing media by adding 1 mL treatment media (100% RPMI 1640 without FBS) to 1 μL of compound dilution (from step 3).
(3) Removed plates (from step 2) from incubator. Aspirated media and replace with 150 μL compound-containing media. Incubate for 1-2 hr at 37° C.
(4) Removed plates (from step 5) from incubator and treated each as follows: aspirated compound-containing media and replaced with 300 μL ice-cold 1×PBS, aspirated PBS and replaced with 45 μL lysis buffer (Biorad Bio-Plex lysis buffer containing 0.4% v/v lysis buff. Factor 1, 0.2% v/v lysis buff. Factor 2, and PMSF to 2 mM final concentration), and then placed plate on ice until all plates were treated.
(5) After all plates were processed (step 6), placed plates on an orbital shaker and shook at room temperature for at least 15 min.
(6) Finally, removed plates from shaker, and transfered 40 μL/well of lysate from each to new corresponding 96-well V-bottom plates. At this point, samples may be frozen and stored @−80 C.°.
(1) Thaw (if necessary) plates (from step 8) and added 40 μL of Phospho-Protein Assay Buffer to each 40 μL lysate for a 1:1 dilution.
(2) Prepared phospho-ERK1,2 Bioplex beads by diluting 1:50 with Bioplex Wash Buffer (mixing 49 μL Wash Buffer with 1 μL of phospho-ERK1,2 Bioplex beads for each sample to be analyzed). Protected from light by wrapping tube in aluminum foil and kept at room temperature.
(3) Prepared Filter Plate by adding 100 μL/well Bioplex Wash Buffer and removed by vacuum filtration.
(4) Add 50 μL of bead solution (from step 10) to each well of a prepared Filter Plate (from step 11) and vacuum filter. Wash/filter 2× with 100 μL/well Wash Buffer.
(5) Added 50 μL of each lysate to appropriate well of the Filter Plate (from step 12). For this and all subsequent plate incubation steps, placed plate on an inverted plate cover (reduces background), and wrapped in aluminum foil (to protect from light). Shook overnight at room temperature. Included positive (control lysate) and negative (lysis buffer) controls.
(1) Prepared detection antibody (phospho-ERK1,2 Ab) by diluting 1:25 with Detection Antibody Dilution Buffer Buffer (mixing 24 μL Detection Antibody Dilution Buffer with 1 μL of phospho-ERK1,2 Ab for each sample to be analyzed).
(2) Removed plate (from step 13) from shaker and vacuum filter. Washed/filter plate 3× with 100 μL/well Wash Buffer. Added 25 μL of diluted antibody to each well. Incubated on shaker at RT for 30-45 min.
(3) Prepared streptavidin-PE by diluting 1:100 with Wash Buffer (mixing 49.5 μL Wash Buffer with 0.5 μL of 100× streptavidin-PE for each sample to be analyzed). Protected from light.
(4) Removed plate (from step 15) from shaker and vacuum filter. Washed/filter plate 3× with 100 μL/well Wash Buffer. Add 50 μL of diluted streptavidin-PE solution (from step 16) to each sample well. Incubated on shaker for 10-20 min.
(5) Removed plate from shaker and vacuum filter. Wash/filter plate 3× with 100 μL/well Bead Resuspension Buffer. After last wash resuspended beads in 125 μL Bead Resuspension Buffer. […]
As usually defined, the EC50 is the concentration needed to bring the measured effect to its halfway point. As for `CCc1ncc(C(=O)N[C@H](C)c2ncc(C(=O)Nc3cc(C(F)(F)F)c(Cl)cn3)s2)n1CC` [Example 163], the EC50 was 100 to 1000 nM.

Regarding `CCn1c(C(=O)NC(C)c2ncc(C(=O)Nc3cc(C(F)(F)F)c(Cl)cn3)s2)cnc1C` (centres unmarked) [Example 164], the EC50 lay within 100 to 1000 nM.

With `C[C@@H](NC(=O)c1cnc2sccn12)c1ncc(C(=O)Nc2cc(C(F)(F)F)c(Cl)cn2)s1` [Example 165], the EC50 was 100 to 1000 nM.

For the compound `C[C@@H](NC(=O)c1cnc2n1CCCN2)c1ncc(C(=O)Nc2cc(C(F)(F)F)c(Cl)cn2)s1` [Example 166], the EC50 was at most 100 nM.

Regarding `C[C@@H](NC(=O)c1cnc2n1CCCCC2)c1ncc(C(=O)Nc2cc(C(F)(F)F)c(Cl)cn2)s1` [Example 168], the EC50 was at most 100 nM.

For `C[C@@H](NC(=O)c1cnc2n1CCN2)c1ncc(C(=O)Nc2cc(C(F)(F)F)c(Cl)cn2)s1` [Example 169], the EC50 is at most 100 nM.

Regarding `C[C@@H](NC(=O)c1cnc2n1CC(=O)N2)c1ncc(C(=O)Nc2cc(C(F)(F)F)c(Cl)cn2)s1` [Example 170], the EC50 was in the range of 100 to 1000 nM.

As to `C[C@@H](NC(=O)c1cnc2n1CCCCN2)c1ncc(C(=O)Nc2cc(C(F)(F)F)c(Cl)cn2)s1` [Example 171], the EC50 is at most 100 nM.

For `C[C@@H](NC(=O)c1cnc2n1CCN2C)c1ncc(C(=O)Nc2cc(C(F)(F)F)c(Cl)cn2)s1` [Example 172], the EC50 lay within 100 to 1000 nM.

In the case of `C[C@@H](NC(=O)c1cnc2n1CCC(=O)N2)c1ncc(C(=O)Nc2cc(C(F)(F)F)c(Cl)cn2)s1` [Example 173], the EC50 is at most 100 nM.

Regarding `CC(NC(=O)c1cc2c(cn1)ncn2C)c1cnc(Nc2cccc(C(F)(F)F)c2)s1` (centres unmarked) [Example 178], the EC50 was in the range of 100 to 1000 nM.

Turning to `CC(NC(=O)c1cc2c(cn1)ncn2CCS(C)(=O)=O)c1cnc(Nc2ccc(C(F)(F)F)cc2)s1` (centres unmarked) [Example 184], the EC50 was in the range of 100 to 1000 nM.

With `C[C@@H](NC(=O)c1cc2c(cn1)ncn2CCS(C)(=O)=O)c1cnc(Nc2ccc(C(F)(F)F)cc2)cn1` [Example 186], the EC50 lay in the range of 100 to 1000 nM.

Regarding `CC(NC(=O)c1ncc2ncn(C)c2n1)c1cnc(Nc2ccc(C(F)(F)F)cc2)cn1` (centres unmarked) [Example 191], the EC50 lay in the range of 1000 to 10000 nM.

With `CCn1cnc2cnc(C(=O)NC(C)c3cnc(Nc4ccc(C(F)(F)F)cc4)cn3)nc21` (centres unmarked) [Example 192], the EC50 is 100 to 1000 nM.

As for `CC(NC(=O)c1ccc2cn[nH]c2c1)c1ccc(C(=O)Nc2cccc(C(F)(F)F)c2)s1` (centres unmarked) [Example 194], the EC50 fell in the range of 1000 to 10000 nM.

Turning to `CC(NC(=O)c1ccc2[nH]ncc2c1)c1ccc(C(=O)Nc2cccc(C(F)(F)F)c2)s1` (centres unmarked) [Example 195], the EC50 was in the range of 1000 to 10000 nM.

Consider `CC(=N)Nc1nc2cnc(C(=O)NC(C)c3cnc(Nc4ccc(C(F)(F)F)cc4)s3)cc2n1C` (centres unmarked) [Example 200], for which the EC50 lay within 1000 to 10000 nM.

`CC(NC(=O)c1cc2cn[nH]c2cn1)c1cnc(Nc2ccc(C(F)(F)F)cc2)s1` (centres unmarked) [Example 202]: the EC50 was 1000 to 10000 nM.

Take `CC(NC(=O)c1cc2cnn(C)c2cn1)c1cnc(Nc2ccc(C(F)(F)F)cc2)s1` (centres unmarked) [Example 204]: the EC50 is 1000 to 10000 nM.

On to `C[C@@H](NC(=O)c1cc2cn(C)nc2cn1)c1cnc(Nc2ccc(C(F)(F)F)cc2)s1` [Example 205], for which the EC50 was at most 100 nM.

Turning to `CC(NC(=O)c1cc2cn(C)nc2cn1)c1cnc(Nc2ccc(C(F)(F)F)cc2)cn1` (centres unmarked) [Example 206], the EC50 was in the range of 100 to 1000 nM.

Take `CC(NC(=O)c1cc2scnc2cn1)c1cnc(Nc2ccc(C(F)(F)F)cc2)s1` (centres unmarked) [Example 208]: the EC50 was at most 100 nM.

As to `C[C@@H](NC(=O)c1cnn2cccnc12)c1ncc(C(=O)Nc2cc(C(F)(F)F)c(Cl)cn2)s1` [Example 226], the EC50 was in the range of 100 to 1000 nM.

For `CC(NC(=O)c1cc2c(cn1)ncn2C)c1cnc(Nc2ccc(Cl)c(C(F)(F)F)c2)cn1` (centres unmarked) [Example 232], the EC50 is at most 100 nM.

On to `CCN1CC(n2cnc3cnc(C(=O)NC(C)c4cnc(Nc5ccc(Cl)c(C(F)(F)F)c5)cn4)cc32)C1` (centres unmarked) [Example 235], for which the EC50 is 100 to 1000 nM.

Consider `CC(NC(=O)c1cc2c(cn1)ncn2C)c1cnc(Nc2cnc(C(C)(C)C)nc2)s1` (centres unmarked) [Example 240], for which the EC50 is at most 100 nM.

Regarding `C[C@H](NC(=O)c1cc2c(cn1)ncn2C)c1cnc(Nc2cnc(C(C)(C)C)nc2)s1` [Example 242], the EC50 lay within 1000 to 10000 nM.

For the compound `CC(NC(=O)c1cc2c(cn1)ncn2C)c1cnc(Nc2ccc(C(F)(F)F)nc2)s1` (centres unmarked) [Example 246], the EC50 fell in the range of 100 to 1000 nM.

For `CC(NC(=O)c1cc2c(cn1)ncn2C)c1cnc(Nc2ccccc2)s1` (centres unmarked) [Example 247], the EC50 lay in the range of 1000 to 10000 nM.

Turning to `CC(NC(=O)c1cc2c(cn1)ncn2C)c1cnc(Nc2cccc(Cl)c2)s1` (centres unmarked) [Example 248], the concentration giving a half-maximal response (EC50) fell in the range of 100 to 1000 nM.

As for `CC(NC(=O)c1cc2c(cn1)ncn2C)c1cnc(Nc2ccc(Cl)cc2)s1` (centres unmarked) [Example 249], the EC50 lay in the range of 100 to 1000 nM.

As to `CC(NC(=O)c1cc2c(cn1)ncn2C)c1cnc(Nc2ccc(S(=O)(=O)C(F)(F)F)cc2)s1` (centres unmarked) [Example 250], the EC50 was 100 to 1000 nM.

For `CC(NC(=O)c1cc2c(cn1)ncn2C)c1cnc(Nc2cc(C(F)(F)F)ccn2)s1` (centres unmarked) [Example 251], the EC50 was in the range of 1000 to 10000 nM.

On to `CC(NC(=O)c1cc2c(cn1)ncn2C)c1cnc(Nc2cccc(C(C)(C)C#N)c2)s1` (centres unmarked) [Example 252], for which the EC50 lay within 100 to 1000 nM.

As to `CC(NC(=O)c1cc2c(cn1)ncn2C)c1cnc(Nc2cccc(C(F)(F)F)n2)s1` (centres unmarked) [Example 253], the EC50 lay within 100 to 1000 nM.

Take `CC(NC(=O)c1cc2c(cn1)ncn2C)c1cnc(Nc2cc(C(F)(F)F)c(Cl)cn2)cn1` (centres unmarked) [Example 254]: the EC50 lay in the range of 1000 to 10000 nM.

On to `CC(NC(=O)c1cc2c(cn1)ncn2C)c1cnc(Nc2ccc(Cl)cc2)cn1` (centres unmarked) [Example 255], for which the 50% effective concentration (EC50) was 100 to 1000 nM.

Consider `CC(NC(=O)c1cc2c(cn1)ncn2C)c1cnc(Nc2cnc(C(C)(C)C)nc2)cn1` (centres unmarked) [Example 256], for which the EC50 lay within 100 to 1000 nM.

For the compound `CC(NC(=O)c1cc2c(cn1)ncn2C)c1cnc(Nc2cccc(C(C)(C)C)c2)s1` (centres unmarked) [Example 257], the EC50 is at most 100 nM.

For the compound `CC(NC(=O)c1cc2c(cn1)ncn2C)c1cnc(Nc2ccc(Cl)c(C(F)(F)F)c2)s1` (centres unmarked) [Example 258], the EC50 lay within 100 to 1000 nM.

As to `Cc1nc(C(F)(F)F)ccc1Nc1ncc(C(C)NC(=O)c2cc3c(cn2)ncn3C)s1` (centres unmarked) [Example 259], the EC50 fell in the range of 100 to 1000 nM.

For the compound `CC(NC(=O)c1cc2c(cn1)ncn2C)c1cnc(Nc2cc(Cl)ncn2)s1` (centres unmarked) [Example 260], the EC50 lay within 1000 to 10000 nM.

As to `CC(NC(=O)c1cc2c(cn1)ncn2C)c1cnc(Nc2ccc(Cl)c(S(=O)(=O)C(F)(F)F)c2)cn1` (centres unmarked) [Example 269], the EC50 was at most 100 nM.

For the compound `CC(NC(=O)c1cc2c(cn1)ncn2C)c1cnc(Nc2cccc(C3(C)CC3)c2)s1` (centres unmarked) [Example 271], the EC50 is 100 to 1000 nM.

For the compound `CC(NC(=O)c1cc2c(cn1)ncn2C)c1cnc(Nc2ccc(C(C)(C)C(F)(F)F)cc2)s1` (centres unmarked) [Example 272], the EC50 lay in the range of 100 to 1000 nM.

Consider `CC(NC(=O)c1cc2c(cn1)ncn2C)c1cnc(Nc2cc(C(C)(C)C(F)(F)F)ccc2F)s1` (centres unmarked) [Example 274], for which the EC50 is at most 100 nM.

Turning to `CC(NC(=O)c1cc2c(cn1)ncn2C)c1cnc(Nc2ccc(C(F)(F)F)cc2N(C)C)s1` (centres unmarked) [Example 275], the EC50 fell in the range of 100 to 1000 nM.

Regarding `CC(NC(=O)c1cc2c(cn1)ncn2C)c1cnc(Nc2ccc(C3(C)CC3)cc2)s1` (centres unmarked) [Example 277], the EC50 fell in the range of 100 to 1000 nM.

On to `CC(NC(=O)c1cc2c(cn1)ncn2C)c1cnc(Nc2cccc(C(C)(C)C(F)(F)F)c2)s1` (centres unmarked) [Example 278], for which the EC50 is at most 100 nM.
